Measurements as given in PubChem BioAssay (NCI).
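Grown in 96-well plates, cells were treated for 48 hours with each compound at five concentrations. Insufficient inhibition: endpoint recorded as highest concentration tested. Here, GI50 denotes the concentration required for 50% inhibition of growth. TGI denotes the concentration required for complete inhibition of growth.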

Tests used:
Assay in all cases: NCI tumour cell line growth inhibition, 48 h
HCT-116 colon = system: HCT-116 colon
KM12 colon = system: KM12 colon
MALME-3M melanoma = system: MALME-3M melanoma
MOLT-4 leukemia = system: MOLT-4 leukemia
OVCAR-3 ovarian = system: OVCAR-3 ovarian
OVCAR-4 ovarian = system: OVCAR-4 ovarian
OVCAR-8 ovarian = system: OVCAR-8 ovarian
RPMI-8226 leukemia = system: RPMI-8226 leukemia
SN12C renal = system: SN12C renal
SR leukemia = system: SR leukemia

| Structure (SMILES) | TGI (HCT-116 colon) | TGI (KM12 colon) | TGI (MALME-3M melanoma) | TGI (MOLT-4 leukemia) | TGI (OVCAR-3 ovarian) | TGI (OVCAR-4 ovarian) | TGI (OVCAR-8 ovarian) | TGI (RPMI-8226 leukemia) | TGI (SN12C renal) | TGI (SR leukemia) | GI50 (HCT-116 colon) | GI50 (KM12 colon) | GI50 (MALME-3M melanoma) | GI50 (MOLT-4 leukemia) | GI50 (OVCAR-3 ovarian) | GI50 (OVCAR-4 ovarian) | GI50 (OVCAR-8 ovarian) | GI50 (RPMI-8226 leukemia) | GI50 (SN12C renal) | GI50 (SR leukemia) |
| --- | --- | --- | --- | --- | --- | --- | --- | --- | --- | --- | --- | --- | --- | --- | --- | --- | --- | --- | --- | --- |
| COc1cc(/C=C2\[C@H]3c4c(c(OC)c(C)c(OC)c4OC)C[C@@H](C(=O)N2Cc2ccccc2)N3C(=O)OC(C)C)c(OC)c(C)c1OC | > 100 µM | > 100 µM | > 100 µM | > 100 µM | > 100 µM | > 100 µM | > 100 µM | > 100 µM | > 100 µM | > 100 µM |  |  |  |  |  |  |  |  |  |  |
| CCC(C)OC(=O)C1C2CCC(O2)C1C(=O)O (stereo not given) | > 56.3 µM | > 100 µM | > 100 µM | > 100 µM | > 100 µM | > 100 µM | > 100 µM | > 68.7 µM | > 100 µM | 40.3 µM |  |  |  |  |  |  |  |  |  |  |
| CCN(CC)CCOc1ccc(/C(=C(\C)Cc2ccc(OC)cc2)c2ccc(OC(=O)NCc3ccccc3)cc2)cc1 | 2.97 µM | 3.89 µM | 3.3 µM | 5.73 µM | 3.47 µM | 7.51 µM | 5.69 µM | 4.4 µM | 3.21 µM | 4.31 µM | 1.57 µM | 1.87 µM | 1.72 µM | 2.11 µM | 1.85 µM | 2.47 µM | 2.38 µM | 2.13 µM | 1.73 µM | 1.99 µM |
| O=C(O)c1ccc(O)c(N=Nc2cc(S(=O)(=O)O)c3ccccc3c2O)c1 | 37.4 µM | > 100 µM | > 100 µM | > 100 µM | > 100 µM | > 100 µM | > 100 µM | > 100 µM | > 100 µM | > 100 µM |  |  |  |  |  |  |  |  |  |  |
| COc1ccc(/C=C2\CN(Cc3cn(CCCNc4ccnc5cc(Cl)ccc45)nn3)C/C(=C\c3ccc(OC)c(OC)c3)C2=O)cc1OC | 2.1 µM | 1.07 µM | 3.54 µM | 6.27 µM | 1.68 µM | 18.1 µM | 15.4 µM | 5.65 µM | 3.12 µM | 12 µM | 0.577 µM | 0.304 µM | 1.75 µM | 1.39 µM | 0.463 µM | 1.11 µM | 0.81 µM | 1.46 µM | 1.33 µM | 0.382 µM |
| CCCc1cc2cc(-n3nc(C)c4c3CC(C)(C)CC4=O)cc(NC3CCC(O)CC3)c2c(=O)[nH]1 (stereo not given) | > 100 µM | > 100 µM | 3.34 µM | > 100 µM | > 100 µM | > 100 µM | > 100 µM | 14.9 µM | > 100 µM | > 100 µM | 0.0634 µM | 0.0986 µM | 0.142 µM | 0.186 µM | 0.58 µM | > 39.6 µM | 0.519 µM | 0.465 µM | 0.0683 µM | 0.122 µM |
| O=C(Nc1nccs1)c1cc2c(cc1Cl)Sc1nccn1S2(=O)=O | 29.5 µM | 26.6 µM | 37.2 µM | 42.1 µM | 28.3 µM | 38.6 µM | 37.1 µM | 23.6 µM | 32.6 µM | 11.9 µM | 16.1 µM | 12.4 µM | 20 µM | 19.1 µM | 15 µM | 16.4 µM | 17.2 µM | 9.29 µM | 16.8 µM | 3 µM |
| Cc1cccc2c(N=Nc3ccc(S(N)(=O)=O)cc3)c(O)[nH]c12 | > 25 µM | > 25 µM | > 25 µM | > 25 µM | > 25 µM | > 25 µM | > 25 µM | > 25 µM | > 25 µM | > 25 µM | > 25 µM | > 25 µM | > 25 µM | > 25 µM | > 25 µM | > 25 µM | > 25 µM | > 25 µM | > 25 µM | > 25 µM |
| N=C1N(c2ccccc2)C(=O)C23CCCC2C13N1CCOCC1 (stereo not given) | > 100 µM | > 100 µM | > 100 µM | > 100 µM | > 100 µM | > 100 µM | > 100 µM | > 100 µM | > 100 µM | > 100 µM |  |  |  |  |  |  |  |  |  |  |
| COC(=O)C(=O)C(C(=O)C(=O)Nc1ccc(Cl)cc1C)c1nc2ccc(C(=O)c3ccccc3)cc2[nH]c1=O (stereo not given) | > 100 µM | > 100 µM | > 100 µM | > 100 µM | > 100 µM | > 100 µM | > 100 µM | > 100 µM | > 100 µM | > 100 µM |  |  |  |  |  |  |  |  |  |  |
| COc1ccc(/C(C)=C(\c2ccc(Cl)cc2)c2ccc(OCCN3CCCC3)cc2)cc1F | 5.64 µM | 4.5 µM | 4.63 µM | 8.28 µM | 8.38 µM | 6.62 µM | 9.68 µM | 9.23 µM | 7.12 µM | 6.47 µM | 2.05 µM | 1.26 µM | 1.23 µM | 3.48 µM | 3.93 µM | 3.21 µM | 4.22 µM | 3.57 µM | 3.55 µM | 1.18 µM |
